Measured values published in patent US6506901B2, “Substituted 2-(S)-hydroxy-3-(piperidin-4-yl-methylamino)-propyl ethers and substituted 2-aryl-2-(R)-hydroxy-1-(piperidin-4-yl-methyl)-ethylamine β-3 adrenergic receptor agonists” (Wyeth, priority 2000, dated 2003).
Values joined by “and” are separate entries in the source; they are usually repeats but may differ in a detail not shown here. Identical values can stand only once.

Target: T1, human β3 receptors (Homo sapiens, UniProt P13945)
T1 construct: Full length β3 AR clones (402 amino acids) containing the last 6 amino acids of hβ3—AR; expressed in transfected cells; host or cells: CHO cells
T1 sequence (P13945 whole entry): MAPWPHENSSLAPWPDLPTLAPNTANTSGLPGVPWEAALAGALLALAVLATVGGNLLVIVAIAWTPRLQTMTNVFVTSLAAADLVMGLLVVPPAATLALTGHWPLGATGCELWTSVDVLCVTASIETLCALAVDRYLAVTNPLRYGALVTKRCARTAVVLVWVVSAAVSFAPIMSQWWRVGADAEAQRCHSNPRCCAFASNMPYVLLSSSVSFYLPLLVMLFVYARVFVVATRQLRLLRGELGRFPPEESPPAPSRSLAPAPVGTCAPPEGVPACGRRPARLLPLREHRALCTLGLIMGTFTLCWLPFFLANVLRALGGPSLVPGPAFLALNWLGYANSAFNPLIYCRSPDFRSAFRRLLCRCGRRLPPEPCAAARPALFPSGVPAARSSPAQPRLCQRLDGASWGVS
Assay: cAMP response (SPA) in CHO cells expressing cloned human β3 adrenergic receptor
Type: cell-based
Conditions: for EC50: CHO cells expressing human β3 receptor, cAMP, 30 min incubation, 10^−9 M to 10^−5 M; for IA(β3): maximal response compared to the maximal response of isoproterenol at 10^−5 M
Description: Binding to the receptors was measured in Chinese Hamster ovary (CHO) cells that were transfected with adrenergic receptors.
Cloning of Human β3-AR Genomic DNA: cDNA was constructed by ligating four polymerase chain reaction (PCR) products using the following primers: an ATG-NarI fragment, sense primer 5′-[…]3′ and anti-sense primer 5′ […]3′; a NarI-AccI fragment, 5′ […]3′ as sense and 5′ […]3′ as anti-sense primer; an AccIi-StyI fragment, sense primer 5′ […]3′ and anti-sense primer 5′ […]3′ and a StyI-TAG fragment, with sense primer 5′ […]3′ and anti-sense primer 5′ […]3′. The corresponding primer sequences are described in Mantzoros, C. […] The four fragments are ligated into a pUC 18 plasmid (Gibco-BRL) and sequenced.
CHO cells were grown in 24-well tissue culture plates in Dulbecco's Modified Eagle Media with 10% fetal bovine serum, MEM non-essential amino acids, Penicillin-Streptompycin and Geneticin. […] Isoproterenol (10^−5 M) was used as an internal standard for comparison of activity. Cells were incubated at 37° C. on a rocker for 30 min with the β3 cells and 15 min for β1 and β2 cells. Incubation was stopped with the addition of 0.2N HCl and neutralized with 2.5N NaOH. The plates, containing the cells and neutralized media, were stored at −20 degrees celsius until ready to test for cAMP using the SPA test kit (Amersham).
Data Analysis and Results: Data collected from the SPA test procedure were analyzed as per cent of the maximal isoproterenol response at 10^−5 M. Activity curves were plotted using the SAS statistical and graphics software.

SMILES	EC50	IA(β3)
CN(Cc1cc(F)ccc1F)C(=O)Nc1ccc(S(=O)(=O)N2CCC(CNC[C@H](O)c3ccc(O)c(NS(C)(=O)=O)c3)CC2)cc1 [Example 87, N-[5-[(R)-2-[[[1-[[4-[[[[(2,5-Difluorophenyl)methyl]-methylamino]-carbonyl]amino]-phenyl]sulfonyl]-4-piperidinyl]methyl]amino]-1-hydroxyethyl]-2-hydroxyphenyl]-methanesulfonamide]	7 nM	1
O=C1Cc2c(cccc2OC[C@@H](O)CNCC2CCN(S(=O)(=O)c3ccc(OC(F)(F)F)cc3)CC2)N1 [Example 46, 4-((2S)-2-Hydroxy-3-{[1-(4-trifluoromethoxy-benzenesulfonyl)-piperidin-4-ylmethyl]-amino}-propoxy)-1,3-dihydro-indol-2-one]	222 nM	0.81
CCCCCCC(=O)Nc1ccc(S(=O)(=O)N2CCC(CNC[C@H](O)COc3ccc(O)cc3)CC2)cc1 [Example 90, Heptanoic Acid [4-(4-{[(2S)-2-Hydroxy-3-(4-hydroxy-phenoxy)-propylamino]-methyl}-piperidine-1-sulfonyl)-phenyl]-amide]	269 nM	0.91
COc1ccc(S(=O)(=O)N2CCC(CNC[C@H](O)COc3cccc4[nH]c(C)cc34)CC2)cc1 [Example 40, 4-((2S)-2-Hydroxy-3-{[1-(4-methoxy-benzenesulfonyl)-piperidin-4-ylmethyl]-amino}-propoxy)-2-methyl-1H-indole]	490 nM	0.23
O=c1[nH]c2ccc(OCC(O)CNCC3CCN(S(=O)(=O)c4cccc(Br)c4)CC3)cc2[nH]1 (stereo in doubt) [Example 178]	210 nM	0.84
COc1ccc(S(=O)(=O)N2CCC(CNC[C@H](O)COc3cccc4[nH]c(=O)[nH]c34)CC2)cc1OC [Example 42, 4-((2S)-2-Hydroxy-3-{[1-(3,4-dimethoxy-benzenesulfonyl)-piperidin-4-ylmethyl]-amino}-propoxy)-1,3-dihydro-benzoimidazol-2-one]	150 nM	0.69
CCCCCCCCN1CCC(CNC[C@H](O)COc2cccc3[nH]c4ccccc4c23)CC1 [Example 27]	1030 nM	0.51
COc1ccc(S(=O)(=O)N2CCC(CNC[C@H](O)COc3cccc4c3-c3ccccc3C4=O)CC2)cc1 [Example 38, 4-((2S)-2-Hydroxy-3-{[1-(4-methoxy-benzenesulfonyl)-piperidin-4-ylmethyl]-amino}-propoxy)-fluoren-9-one]	365 nM	0.36
CS(=O)(=O)Nc1cc([C@@H](O)CNCC2CCN(S(=O)(=O)c3ccc(CNC(=O)c4ccccc4)s3)CC2)ccc1O [Example 183, N-({5-[(4-{[((2R)-2-hydroxy-2-{4-hydroxy-3-[(methylsulfonyl)-amino]-phenyl}ethyl)amino]methyl}piperidin-1-yl)sulfonyl]thien-2-yl}methyl)benzamide]	1410 nM	0.72
COc1ccc(S(=O)(=O)N2CCC(CNC[C@H](O)COc3cccc4c3CC(=O)N4)CC2)cc1 [Example 41, 4-((2S)-3-{[1-(4-Methoxy-benzenesulfonyl)-piperidin-4-ylmethyl]-amino}-2-hydroxy-propoxy)-1,3-dihydro-indol-2-one]	95 nM	0.65
CC(C)(C)c1ccc(S(=O)(=O)N2CCC(CNC[C@H](O)COc3ccc(O)cc3)CC2)cc1 [Example 160, 4-[((2S)-3-{[(1-{[4-(tert-butyl)phenyl]sulfonyl}piperidin-4-yl)methyl]amino}-2-hydroxypropyl)oxy]phenol]	346 nM	0.85
CS(=O)(=O)Nc1cc([C@@H](O)CNCC2CCN(S(=O)(=O)c3c(Cl)sc(Cl)c3Br)CC2)ccc1O [Example 173, N-(5-{(1R)-2-[({1-[(4-bromo-2,5-dichlorothien-3-yl)sulfonyl]-piperidin-4-yl}methyl)amino]-1-hydroxyethyl}-2-hydroxyphenyl)-methanesulfonamide]	388 nM and 380 nM	1.34 and 1.15
O=C(NCc1c(F)cccc1F)c1ccc(S(=O)(=O)N2CCC(CNC[C@H](O)COc3ccc(O)cc3)CC2)cc1 [Example 91, N-(2,6-Difluoro-benzyl)-4-(4-{[(2S)-2-hydroxy-3-(4-hydroxy-phenoxy)-propylamino]-methyl}-piperidine-1-sulfonyl)-benzamide]	110 nM	0.72
O=S(=O)(c1ccc(OC(F)(F)F)cc1)N1CCC(CNC[C@H](O)COc2ccc(O)cc2)CC1 [Example 47, 4-((2S)-2-Hydroxy-3-{[1-(4-trifluoromethoxy-benzenesulfonyl)-piperidin-4-ylmethyl]-amino}-propoxy)-phenol]	250 nM	0.7
CN(Cc1c(F)cccc1F)C(=O)Nc1ccc(S(=O)(=O)N2CCC(CNC[C@H](O)c3ccc(O)c(NS(C)(=O)=O)c3)CC2)cc1 [Example 85, N-(5-{2-[(1-{4-[3-(2,6-Difluoro-benzyl)-3-methyl-ureido]-benzenesulfonyl}-piperidin-4-ylmethyl)-amino]-1-hydroxy-ethyl}-2-hydroxy-phenyl)-methanesulfonamide]	29 nM	1.2
O=C1c2ccccc2-c2c(OC[C@@H](O)CNCC3CCN(CCC(F)(F)F)CC3)cccc21 [Example 13, 4-(2-Hydroxy-3-{[1-(3,3,3-trifluoro-propyl)-piperidin-4-ylmethyl]-amino}-propoxy)-fluoren-9-one]	596 nM	0.62
CS(=O)(=O)Nc1cc(C(O)CNCC2CCN(S(=O)(=O)c3ccc(-c4noc(CCC(=O)O)n4)cc3)CC2)ccc1O (stereo in doubt) [Example 105, 3-(3-{4-[(4-{[((2S)-2-Hydroxy-2-{4-hydroxy-3-[(methylsulfonyl)amino]-phenyl}ethyl)amino]methyl}-1-piperidinyl)sulfonyl]phenyl}-1,2,4-oxadiazol-5-yl)propanoic Acid]	34 nM	0.94
CCCCCCCCNC(=O)Nc1ccc(S(=O)(=O)N2CCC(CNC[C@H](O)c3ccc(O)c(NS(C)(=O)=O)c3)CC2)cc1 [Example 73, (R)-N-{2-Hydroxy-5-[1-hydroxy-2-({1-[4-(3-octyl-ureido)-benzenesulfonyl]-piperidin-4-ylmethyl}-amino)-ethyl]-phenyl}-methanesulfonamide]	6 nM	1
O=[N+]([O-])c1ccc(S(=O)(=O)N2CCC(CNC[C@H](O)COc3ccc(O)cc3)CC2)cc1 [Example 45, 4-((2S)-2-Hydroxy-3-{[1-(4-nitro-benzenesulfonyl)-piperidin-4-ylmethyl]-amino}-propoxy)-phenol]	610 nM	1
CN1CCN(c2ccc(S(=O)(=O)N3CCC(CNC[C@H](O)COc4ccc(O)cc4)CC3)cc2)C1=O [Example 94, 1-[4-(4-{[2-Hydroxy-3-(4-hydroxy-phenoxy)-propylamino]-methyl}-piperidine-1-sulfonyl)-phenyl]-3-methyl-imidazolidin-2-one]	510 nM	0.76
CS(=O)(=O)Nc1cc([C@@H](O)CNCC2CCN(S(=O)(=O)c3ccc(-n4ccc5c(C(=O)O)cccc54)cc3)CC2)ccc1O [Example 99, 1-[4-(4-{[(2R)-2-Hydroxy-2-(4-hydroxy-3-methanesulfonylamino-phenyl)-ethylamino]-methyl}-piperidine-1-sulfonyl)-phenyl]-1H-indole-4-carboxylic Acid]	9 nM	1
